Values of other authors, collected in US12090029B2, “Devices and methods for enhancing immunogenicity to intradermal vaccination” (VERSITECH LIMITED, priority 2016, dated 2024).

Tests used:
[1] = tested on: vaccine influenza strains; details: young healthy individuals, topical application before intradermal trivalent influenza vaccine (Hung et al., 2016)
[2] = tested on: influenza vaccination; details: elderly subjects
[3] = tested on: influenza vaccine; details: mouse model, imiquimod cream applied (Zhang et al., 2014)

Structure (SMILES): CC(C)Cn1cnc2c(N)nc3ccccc3c21 [imiquimod]
- immunogenicity against the non-vaccine strains [1]: increased
- immunogenicity against the vaccine influenza strains [1]: significantly improved
- hospitalizations for influenza or pneumonia ([2]; relative to a vaccine-only group): fewer
- seroconversion rate ([2]; sustained to 1 year, relative to a vaccine-only group): earlier and better
- immunogenicity of influenza vaccination ([2]; topical pre-treatment, relative to a vaccine-only group (Hung et al., 2014)): significantly expedited, augmented, and prolonged
- immunogenicity of influenza vaccine [3]: enhanced
